In ChEMBL document CHEMBL6096703 (J Med Chem, 2025):
pIC50: −log10 of the molar value. Activity calls are given as the source filed them. No cut-off for these calls is given here.

Tests used:
[1] = molecular target: Poly [ADP-ribose] polymerase 2 (Homo sapiens, UniProt Q9UGN5); experiment: Inhibition of PARP2 (unknown origin) at 1 uM preincubated with compound for 10 mins followed by DNA and NAD+ addition and measured after 60 mins by chemiluminescence based envision reader analysis relative to control; details: time 70.0 min
[2] = AUC(0 to t) in male Balb/c mouse at 1 mg/kg, iv measured upto 96 hrs by LC-MS/MS analysis; type: ADME, organism-based; details: male, Balb/c, in vivo
[3] = Sub-acute toxicity in Kunming mouse assessed as change UREAL level at 100 to 300 mg/kg administered via gavage for 14 days; type: organism-based; details: in vivo, po, 336 h, dose 100-300 mg/kg, time 14 day
[4] = Sub-acute toxicity in Kunming mouse assessed as change UREAL level at 30 to 100 mg/kg administered via gavage once a day for 14 days; type: organism-based; details: in vivo, po, 336 h, dose 30-100 mg/kg, time 14 day
[5] = Half life in male Balb/c mouse at 1 mg/kg, po measured upto 96 hrs by LC-MS/MS analysis; type: ADME, organism-based; details: male, Balb/c, in vivo
[6] = Sub-acute toxicity in Kunming mouse assessed as change LDH2 level at 100 to 300 mg/kg administered via gavage for 14 days; type: organism-based; details: in vivo, po, 336 h, dose 100-300 mg/kg, time 14 day
[7] = Cmax in male Balb/c mouse at 1 mg/kg, iv measured upto 96 hrs by LC-MS/MS analysis; type: ADME, organism-based; details: in vivo
[8] = Acute toxicity in Kunming mouse assessed as change in cellular morphology of lung at 100 mg/kg administered once a day via gavage for 14 days by H and E staining based analysis; type: organism-based; details: in vivo, po, 336 h, time 14 day
[9] = Acute toxicity in Kunming mouse assessed as change in kidney structure at 300 mg/kg administered via gavage for 14 days by H and E staining based analysis; type: organism-based; details: in vivo, po, 336 h, time 14 day
[10] = Drug concentration in brain of male Balb/c mouse at 10 mg/kg, po measured at 6 hr postdose; type: ADME, organism-based; details: read-out: Ct
[11] = Sub-acute toxicity in Kunming mouse assessed as change CREA2 level at 30 to 100 mg/kg administered via gavage once a day for 14 days; type: organism-based; details: in vivo, po, 336 h, dose 30-100 mg/kg, time 14 day
[12] = Acute toxicity in Kunming mouse assessed as change in lung structure at 300 mg/kg administered via gavage for 14 days by H and E staining based analysis; type: organism-based; details: in vivo, po, 336 h, time 14 day
[13] = Tmax in male Balb/c mouse at 1 mg/kg, iv measured upto 96 hrs by LC-MS/MS analysis; type: ADME, organism-based; details: in vivo
[14] = Sub-acute toxicity in Kunming mouse assessed as change ALTL level at 100 to 300 mg/kg administered via gavage for 14 days; type: organism-based; details: in vivo, po, 336 h, dose 100-300 mg/kg, time 14 day
[15] = AUC(0 to t) in male Balb/c mouse at 1 mg/kg, po measured upto 96 hrs by LC-MS/MS analysis; type: ADME, organism-based; details: male, Balb/c, in vivo
MDA-MB-436 [16] = experiment: Antiproliferative activity against human MDA-MB-436 cells assessed as reduction in cell viability incubated for 7 days by CCK-8 assay; type: functional, cell-based; details: MDA-MB-436, 168 h
[17] = Oral bioavailability in male Balb/c mouse at 1 mg/kg measured upto 96 hrs by LC-MS/MS analysis; type: ADME, organism-based; details: in vivo
[18] = Acute toxicity in Kunming mouse assessed as change in spleen structure at 300 mg/kg administered via gavage for 14 days by H and E staining based analysis; type: organism-based; details: in vivo, po, 336 h, time 14 day
[19] = Sub-acute toxicity in Kunming mouse assessed as change ASTL level at 30 to 100 mg/kg administered via gavage once a day for 14 days; type: organism-based; details: in vivo, po, 336 h, dose 30-100 mg/kg, time 14 day
[20] = Drug concentration in brain of male Balb/c mouse at 10 mg/kg, po measured at 1 hr postdose; type: ADME, organism-based; details: read-out: Ct
[21] = Sub-acute toxicity in Kunming mouse assessed as change LDH2 level at 30 to 100 mg/kg administered via gavage once a day for 14 days; type: organism-based; details: in vivo, po, 336 h, dose 30-100 mg/kg, time 14 day
[22] = Sub-acute toxicity in Kunming mouse assessed as change ASTL level at 100 to 300 mg/kg administered via gavage for 14 days; type: organism-based; details: in vivo, po, 336 h, dose 100-300 mg/kg, time 14 day
MDA-MB-436 [23] = experiment: Antitumor activity against human MDA-MB-436 cells xenografted in female NOD/SCID mouse assessed as tumor regression rate at 1 mg/kg, po administered once every other day for 28 days relative to control; type: functional; details: time 28.0 day
[24] = Acute toxicity in Kunming mouse assessed as change in cellular morphology of kidney at 100 mg/kg administered once a day via gavage for 14 days by H and E staining based analysis; type: organism-based; details: in vivo, po, 336 h, time 14 day
[25] = Tmax in male Balb/c mouse at 1 mg/kg, po measured upto 96 hrs by LC-MS/MS analysis; type: ADME, organism-based; details: in vivo
MDA-MB-436 [26] = experiment: Antitumor activity against luciferase tagged human MDA-MB-436 cells xenografted in female NOD-SCID mouse assessed as median survival time at 3 mg/kg, po administered once a day for 34 days; type: functional; details: time 34 day
[27] = Acute toxicity in Kunming mouse assessed as change in heart structure at 300 mg/kg administered via gavage for 14 days by H and E staining based analysis; type: organism-based; details: in vivo, po, 336 h, time 14 day
[28] = Sub-acute toxicity in Kunming mouse assessed as change ALB2 level at 100 to 300 mg/kg administered via gavage for 14 days; type: organism-based; details: in vivo, po, 336 h, dose 100-300 mg/kg, time 14 day
[29] = Cmax in male Balb/c mouse at 1 mg/kg, po measured upto 96 hrs by LC-MS/MS analysis; type: ADME, organism-based; details: in vivo
[30] = Drug concentration in blood of male Balb/c mouse at 10 mg/kg, po measured at 1 hr postdose; type: ADME, organism-based; details: read-out: Ct
[31] = Half life in male Balb/c mouse at 1 mg/kg, iv measured upto 96 hrs by LC-MS/MS analysis; type: ADME, organism-based; details: male, Balb/c, in vivo
[32] = Acute toxicity in Kunming mouse assessed as change in cellular morphology of spleen at 100 mg/kg administered once a day via gavage for 14 days by H and E staining based analysis; type: organism-based; details: in vivo, po, 336 h, time 14 day
[33] = Drug concentration in blood of male Balb/c mouse at 10 mg/kg, po measured at 6 hr postdose; type: ADME, organism-based; details: read-out: Ct
[34] = Acute toxicity in Kunming mouse assessed as change in liver structure at 300 mg/kg administered via gavage for 14 days by H and E staining based analysis; type: organism-based; details: in vivo, po, 336 h, time 14 day
[35] = Sub-acute toxicity in Kunming mouse assessed as change ALTL level at 30 to 100 mg/kg administered via gavage once a day for 14 days; type: organism-based; details: in vivo, po, 336 h, dose 30-100 mg/kg, time 14 day
[36] = Apparent volume of distribution in male Balb/c mouse at 1 mg/kg, iv measured upto 96 hrs by LC-MS/MS analysis; type: ADME, organism-based; details: male, Balb/c, in vivo, read-out: Vz
[37] = Acute toxicity in Kunming mouse assessed as change in cellular morphology of heart at 100 mg/kg administered once a day via gavage for 14 days by H and E staining based analysis; type: organism-based; details: in vivo, po, 336 h, time 14 day
[38] = Clearance in male Balb/c mouse at 1 mg/kg, iv measured upto 96 hrs by LC-MS/MS analysis; type: ADME, organism-based; details: male, Balb/c, in vivo
[39] = molecular target: Poly [ADP-ribose] polymerase 1 (Homo sapiens, UniProt P09874); experiment: Inhibition of PARP1 (unknown origin) at 1 nM preincubated with compound for 10 mins followed by DNA and NAD+ addition and measured after 60 mins by chemiluminescence based envision reader analysis relative to control; details: time 70.0 min
[40] = Sub-acute toxicity in Kunming mouse assessed as change CK level at 100 to 300 mg/kg administered via gavage for 14 days; type: organism-based; details: in vivo, po, 336 h, dose 100-300 mg/kg, time 14 day
[41] = Sub-acute toxicity in Kunming mouse assessed as change CREA2 level at 100 to 300 mg/kg administered via gavage for 14 days; type: organism-based; details: in vivo, po, 336 h, dose 100-300 mg/kg, time 14 day
[42] = Sub-acute toxicity in Kunming mouse assessed as change CK level at 30 to 100 mg/kg administered via gavage once a day for 14 days; type: organism-based; details: in vivo, po, 336 h, dose 30-100 mg/kg, time 14 day
[43] = Apparent volume of distribution in male Balb/c mouse at 1 mg/kg, po measured upto 96 hrs by LC-MS/MS analysis; type: ADME, organism-based; details: in vivo
[44] = Acute toxicity in Kunming mouse assessed as change in cellular morphology of liver at 100 mg/kg administered once a day via gavage for 14 days by H and E staining based analysis; type: organism-based; details: in vivo, po, 336 h, time 14 day
[45] = Sub-acute toxicity in Kunming mouse assessed as change ALB2 level at 30 to 100 mg/kg administered via gavage once a day for 14 days; type: organism-based; details: in vivo, po, 336 h, dose 30-100 mg/kg, time 14 day
[46] = Clearance in male Balb/c mouse at 1 mg/kg, po measured upto 96 hrs by LC-MS/MS analysis; type: ADME, organism-based; details: male, Balb/c, in vivo

Sequence of Poly [ADP-ribose] polymerase 2 (Q9UGN5 whole entry): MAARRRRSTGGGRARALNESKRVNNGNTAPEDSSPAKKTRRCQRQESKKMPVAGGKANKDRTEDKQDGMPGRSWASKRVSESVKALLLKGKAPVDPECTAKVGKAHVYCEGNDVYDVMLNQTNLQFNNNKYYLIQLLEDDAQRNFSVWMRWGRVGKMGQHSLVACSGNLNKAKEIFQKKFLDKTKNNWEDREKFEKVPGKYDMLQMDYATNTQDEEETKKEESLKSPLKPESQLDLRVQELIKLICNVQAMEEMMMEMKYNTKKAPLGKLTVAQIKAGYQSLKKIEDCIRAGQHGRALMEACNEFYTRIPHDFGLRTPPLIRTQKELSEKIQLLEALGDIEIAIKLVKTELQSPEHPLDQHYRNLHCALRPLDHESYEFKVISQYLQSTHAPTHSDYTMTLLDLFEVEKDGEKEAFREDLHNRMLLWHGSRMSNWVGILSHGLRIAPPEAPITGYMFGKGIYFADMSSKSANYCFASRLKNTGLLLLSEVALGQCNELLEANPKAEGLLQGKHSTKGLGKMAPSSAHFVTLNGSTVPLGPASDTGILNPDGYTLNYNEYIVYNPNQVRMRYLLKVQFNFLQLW
Sequence of Poly [ADP-ribose] polymerase 1 (P09874 whole entry): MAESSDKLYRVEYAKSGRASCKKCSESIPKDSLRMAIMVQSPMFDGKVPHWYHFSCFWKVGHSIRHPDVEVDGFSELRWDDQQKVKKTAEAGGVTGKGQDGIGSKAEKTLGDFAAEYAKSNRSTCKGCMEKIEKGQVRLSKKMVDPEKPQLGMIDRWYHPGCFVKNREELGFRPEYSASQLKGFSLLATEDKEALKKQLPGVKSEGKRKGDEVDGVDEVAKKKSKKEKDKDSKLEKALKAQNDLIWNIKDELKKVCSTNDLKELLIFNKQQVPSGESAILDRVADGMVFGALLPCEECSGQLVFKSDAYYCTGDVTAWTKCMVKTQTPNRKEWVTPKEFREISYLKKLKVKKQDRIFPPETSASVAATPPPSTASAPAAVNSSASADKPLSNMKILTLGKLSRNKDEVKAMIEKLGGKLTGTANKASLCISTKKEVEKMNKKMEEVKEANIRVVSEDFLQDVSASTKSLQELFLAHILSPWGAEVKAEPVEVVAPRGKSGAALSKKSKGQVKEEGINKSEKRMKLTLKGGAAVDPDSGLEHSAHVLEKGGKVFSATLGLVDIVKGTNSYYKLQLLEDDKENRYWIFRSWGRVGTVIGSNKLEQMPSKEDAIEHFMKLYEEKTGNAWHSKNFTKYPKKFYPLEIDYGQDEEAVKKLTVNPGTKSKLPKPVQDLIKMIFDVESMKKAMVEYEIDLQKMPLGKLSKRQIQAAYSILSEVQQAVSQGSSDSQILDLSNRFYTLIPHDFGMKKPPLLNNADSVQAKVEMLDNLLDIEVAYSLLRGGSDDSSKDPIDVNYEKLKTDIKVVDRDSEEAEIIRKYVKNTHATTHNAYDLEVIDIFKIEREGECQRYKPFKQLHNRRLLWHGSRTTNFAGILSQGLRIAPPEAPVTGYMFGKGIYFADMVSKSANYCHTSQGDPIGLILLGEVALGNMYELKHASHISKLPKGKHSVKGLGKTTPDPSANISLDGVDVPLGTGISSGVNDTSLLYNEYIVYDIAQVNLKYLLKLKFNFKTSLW

CNC(=O)c1ccc(N2CCN(Cc3ccc4nc(C)c(=O)[nH]c4c3F)CC2)c(F)n1 [AZD-9574]
inhibition [1]: 38.1% | AUC(0-t) at 96 h [2]: 4890 ng·h/mL | Activity [3]: Non-toxic | Activity [4]: Non-toxic | half-life [5]: 8.81 h | Activity [6]: Non-toxic | Cmax [7]: 941 ng/mL | Activity [8]: Non-toxic | Activity [9]: Non-toxic | concentration at 6 h [10]: 48 ng/g | Activity [11]: Non-toxic | Activity [12]: Non-toxic | Tmax [13]: 4.8 min | Activity [14]: Non-toxic | AUC(0-t) at 96 h [15]: 4180 ng·h/mL | pIC50 (MDA-MB-436 [16]): 8.17 | bioavailability [17]: 85.5% | Activity [18]: Non-toxic | Activity [19]: Non-toxic | concentration at 1 h [20]: 412 ng/g | Activity [21]: Non-toxic | Activity [22]: Non-toxic | Activity (MDA-MB-436 [23]): inactive | Activity [24]: Non-toxic | Tmax [25]: 0.33 h | Survival (MDA-MB-436 [26]): >65 days | Activity [27]: Non-toxic | Activity [28]: Non-toxic | Cmax [29]: 594 ng/mL | concentration at 1 h [30]: 3780 ng/mL | half-life [31]: 14.7 h | Activity [32]: Non-toxic | concentration at 6 h [33]: 186 ng/mL | Activity [34]: Non-toxic | Activity [35]: Non-toxic | Vd [36]: 3.64 L/kg | Activity [37]: Non-toxic | clearance [38]: 3.17 mL/min/kg | inhibition [39]: 63.7% | Activity [40]: Non-toxic | Activity [41]: Non-toxic | Activity [42]: Non-toxic | Vz [43]: 3.03 L/kg | Activity [44]: Non-toxic | Activity [45]: Non-toxic | CL/F [46]: 4 mL/min/kg
